According to patent US11447466B2, “Substituted indole compounds useful as inhibitors of TLR7/8/9” (BRISTOL-MYERS SQUIBB COMPANY, priority 2017, dated 2022):

Experiments:
Format in all cases: cell-based
human TLR9 = molecular target: T1, human TLR9 (Homo sapiens, UniProt Q9NR96); assay: TLR9 inhibition reporter assay (HEK-Blue SEAP reporter, ODN2006 stimulation); settings: HEK-Blue cells overexpressing human TLR9, SEAP reporter, ODN2006 5 nM, 22 hour incubation
T1 construct: host or cells: HEK-Blue cells
T1 sequence (Q9NR96 26-1032): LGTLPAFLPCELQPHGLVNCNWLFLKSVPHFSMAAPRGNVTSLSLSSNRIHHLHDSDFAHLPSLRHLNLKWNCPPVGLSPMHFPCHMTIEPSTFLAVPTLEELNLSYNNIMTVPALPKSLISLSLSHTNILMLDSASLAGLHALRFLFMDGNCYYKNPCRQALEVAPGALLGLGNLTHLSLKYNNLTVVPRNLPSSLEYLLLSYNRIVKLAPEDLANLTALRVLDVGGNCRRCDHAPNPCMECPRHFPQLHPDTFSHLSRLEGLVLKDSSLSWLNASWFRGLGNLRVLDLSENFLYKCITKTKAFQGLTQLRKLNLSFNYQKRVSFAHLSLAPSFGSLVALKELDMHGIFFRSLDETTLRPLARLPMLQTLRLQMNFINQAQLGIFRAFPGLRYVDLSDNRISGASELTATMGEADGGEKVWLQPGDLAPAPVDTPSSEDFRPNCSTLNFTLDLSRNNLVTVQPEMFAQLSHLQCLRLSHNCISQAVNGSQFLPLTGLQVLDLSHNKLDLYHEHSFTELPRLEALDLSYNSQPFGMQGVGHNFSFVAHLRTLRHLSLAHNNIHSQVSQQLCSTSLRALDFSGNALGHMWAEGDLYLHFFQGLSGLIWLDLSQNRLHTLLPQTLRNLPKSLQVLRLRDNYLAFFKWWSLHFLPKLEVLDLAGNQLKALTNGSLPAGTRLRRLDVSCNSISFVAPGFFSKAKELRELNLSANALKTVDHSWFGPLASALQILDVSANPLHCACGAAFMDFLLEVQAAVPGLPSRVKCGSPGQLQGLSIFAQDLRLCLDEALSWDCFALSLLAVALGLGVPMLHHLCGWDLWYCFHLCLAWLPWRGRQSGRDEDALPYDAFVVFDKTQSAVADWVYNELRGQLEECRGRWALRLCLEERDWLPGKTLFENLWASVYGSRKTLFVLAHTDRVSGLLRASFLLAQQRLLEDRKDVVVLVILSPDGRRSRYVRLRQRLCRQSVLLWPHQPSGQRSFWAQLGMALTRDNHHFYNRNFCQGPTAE
Summary of the method: (§1)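 HEK-Blue cells overexpressing human TLR7, TLR8 or TLR9 carry a SEAP reporter driven by NF-κB/AP-1 sites. Compounds (0.05 nM–50 μM) were preincubated 30 min at room temperature, then cells were stimulated with gardiquimod 7.5 μM (TLR7), R848 15.9 μM (TLR8) or ODN2006 5 nM (TLR9) for 22 h at 37 °C.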

human TLR7 = molecular target: T2, human TLR7 (Homo sapiens, UniProt Q9NYK1); assay: TLR7 inhibition reporter assay (HEK-Blue SEAP reporter, gardiquimod stimulation); settings: HEK-Blue cells overexpressing human TLR7, SEAP reporter, gardiquimod 7.5 μM, 22 hour incubation
T2 construct: host or cells: HEK-Blue cells
T2 sequence (Q9NYK1 27-1049): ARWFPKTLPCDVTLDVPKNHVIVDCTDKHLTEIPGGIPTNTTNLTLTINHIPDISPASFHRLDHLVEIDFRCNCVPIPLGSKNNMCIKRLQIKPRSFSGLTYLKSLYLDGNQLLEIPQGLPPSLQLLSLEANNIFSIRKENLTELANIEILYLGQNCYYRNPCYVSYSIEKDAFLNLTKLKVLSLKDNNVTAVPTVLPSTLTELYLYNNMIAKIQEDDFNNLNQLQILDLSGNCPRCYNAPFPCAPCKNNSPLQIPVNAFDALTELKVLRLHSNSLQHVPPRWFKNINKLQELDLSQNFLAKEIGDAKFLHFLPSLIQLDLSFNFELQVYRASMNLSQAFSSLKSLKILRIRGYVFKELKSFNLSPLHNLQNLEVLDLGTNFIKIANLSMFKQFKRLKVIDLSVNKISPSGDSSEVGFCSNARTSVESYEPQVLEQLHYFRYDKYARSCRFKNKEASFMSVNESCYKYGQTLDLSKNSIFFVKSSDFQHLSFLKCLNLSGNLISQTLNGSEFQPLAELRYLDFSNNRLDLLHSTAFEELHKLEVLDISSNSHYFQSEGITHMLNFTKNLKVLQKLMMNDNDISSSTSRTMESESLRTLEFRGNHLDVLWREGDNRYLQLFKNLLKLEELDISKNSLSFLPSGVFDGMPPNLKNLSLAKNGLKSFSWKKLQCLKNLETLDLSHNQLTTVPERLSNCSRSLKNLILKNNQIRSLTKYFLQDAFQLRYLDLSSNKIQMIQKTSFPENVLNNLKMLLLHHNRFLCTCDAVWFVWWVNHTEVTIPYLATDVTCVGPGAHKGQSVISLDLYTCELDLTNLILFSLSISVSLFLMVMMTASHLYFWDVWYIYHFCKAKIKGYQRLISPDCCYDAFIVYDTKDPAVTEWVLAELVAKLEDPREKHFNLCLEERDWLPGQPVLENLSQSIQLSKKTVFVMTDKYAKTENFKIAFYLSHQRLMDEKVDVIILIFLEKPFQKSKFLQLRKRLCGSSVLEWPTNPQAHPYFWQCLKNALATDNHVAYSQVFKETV
Summary of the method: as §1

human TLR8 = molecular target: T3, human TLR8 (Homo sapiens, UniProt Q9NR97); assay: TLR8 inhibition reporter assay (HEK-Blue SEAP reporter, R848 stimulation); settings: HEK-Blue cells overexpressing human TLR8, SEAP reporter, R848 15.9 μM, 22 hour incubation
T3 construct: host or cells: HEK-Blue cells
T3 sequence (Q9NR97 27-1041): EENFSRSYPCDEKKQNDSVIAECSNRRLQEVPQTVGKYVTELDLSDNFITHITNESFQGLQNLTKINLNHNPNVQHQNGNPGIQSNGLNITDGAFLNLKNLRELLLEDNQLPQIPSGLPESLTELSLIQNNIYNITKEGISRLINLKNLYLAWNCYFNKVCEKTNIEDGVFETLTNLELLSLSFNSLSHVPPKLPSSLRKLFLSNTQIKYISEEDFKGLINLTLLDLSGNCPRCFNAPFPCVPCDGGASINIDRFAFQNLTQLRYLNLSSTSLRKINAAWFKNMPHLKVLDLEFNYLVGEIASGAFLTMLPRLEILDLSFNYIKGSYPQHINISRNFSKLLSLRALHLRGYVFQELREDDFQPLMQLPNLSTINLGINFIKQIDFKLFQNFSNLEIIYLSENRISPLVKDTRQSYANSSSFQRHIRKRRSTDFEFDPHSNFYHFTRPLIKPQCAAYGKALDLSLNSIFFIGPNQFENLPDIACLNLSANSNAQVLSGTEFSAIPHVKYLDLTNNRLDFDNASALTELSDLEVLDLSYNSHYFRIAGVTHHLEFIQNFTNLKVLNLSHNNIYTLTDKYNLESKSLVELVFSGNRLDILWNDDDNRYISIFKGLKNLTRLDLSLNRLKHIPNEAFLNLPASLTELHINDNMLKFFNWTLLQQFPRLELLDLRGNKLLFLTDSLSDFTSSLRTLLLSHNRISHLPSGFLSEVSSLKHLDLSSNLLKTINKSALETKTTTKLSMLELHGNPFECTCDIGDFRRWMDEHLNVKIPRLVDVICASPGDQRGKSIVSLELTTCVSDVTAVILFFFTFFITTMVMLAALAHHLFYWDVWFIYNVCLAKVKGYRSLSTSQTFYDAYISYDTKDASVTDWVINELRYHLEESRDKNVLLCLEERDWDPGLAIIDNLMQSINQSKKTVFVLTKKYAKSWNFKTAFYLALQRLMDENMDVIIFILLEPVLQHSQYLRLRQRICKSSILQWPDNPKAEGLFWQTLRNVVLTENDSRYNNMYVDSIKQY
Summary of the method: as §1

IC50 (human TLR9) [nM] | IC50 (human TLR7) [nM] | IC50 (human TLR8) [nM] | SMILES
≥ 50000 | 7.8 | 80 | Cc1cc(-c2[nH]c3ccc(C4CCN(C(=O)C(C)(C)CO)CC4)cc3c2C(C)C)cn(C)c1=O [Example 304, 5-(5-(1-(3-hydroxy-2,2-dimethylpropanoyl)piperidin-4-yl)-3-isopropyl-1H-indol-2-yl)-1,3-dimethylpyridin-2(1H)-one]
≥ 50000 | 11 | 97.5 | Cc1cc(-c2[nH]c3ccc(C4CCN(C(=O)C[C@H](C)O)CC4)cc3c2C(C)C)cn(C)c1=O [Example 305, (S)-5-(5-(1-(3-hydroxybutanoyl)piperidin-4-yl)-3-isopropyl-1H-indol-2-yl)-1,3-dimethylpyridin-2(1H)-one]
547 | 16.5 | 26.9 | Cc1cc(-c2[nH]c3ccc(C4CCN(C(=O)C[C@H]5CCCN5)CC4)cc3c2C(C)C)cn(C)c1=O [Example 306, (R)-5-(3-isopropyl-5-(1-(2-(pyrrolidin-2-yl)acetyl)piperidin-4-yl)-1H-indol-2-yl)-1,3-dimethylpyridin-2(1H)-one]
5650 | 2 | 22.1 | Cc1c(-c2[nH]c3ccc(C4CCN(S(=O)(=O)CCN5CCCC5)CC4)cc3c2C(C)C)cn(C)c(=O)c1Cl [Example 308, 3-chloro-5-(3-isopropyl-5-(1-((2-(pyrrolidin-1-yl)ethyl)sulfonyl)piperidin-4-yl)-1H-indol-2-yl)-1,4-dimethylpyridin-2(1H)-one]
8510 | 13.7 | 5.3 | Cc1c(-c2[nH]c3ccc(C4CCN(CC(C)(C)O)CC4)cc3c2C(C)C)cn(C)c(=O)c1Cl [Example 309, 3-chloro-5-(5-(1-(2-hydroxy-2-methylpropyl)piperidin-4-yl)-3-isopropyl-1H-indol-2-yl)-1,4-dimethylpyridin-2(1H)-one]
5540 | 2.3 | 1.3 | Cc1cc(-c2[nH]c3ccc(C4CCN(CC(C)(C)O)CC4)cc3c2C(C)C)cn(C)c1=O [Example 310, 5-(5-(1-(2-hydroxy-2-methylpropyl)piperidin-4-yl)-3-isopropyl-1H-indol-2-yl)-1,3-dimethylpyridin-2(1H)-one]
3150 | 17.7 | 3.9 | Cc1cc(-c2[nH]c3ccc(C4CCN(CC(C)(C)O)CC4)cc3c2C(C)C)nn(C)c1=O [Example 311, 6-(5-(1-(2-hydroxy-2-methylpropyl)piperidin-4-yl)-3-isopropyl-1H-indol-2-yl)-2,4-dimethylpyridazin-3(2H)-one]
3170 | 35.1 | 22.2 | Cc1nc(-c2[nH]c3ccc(C4CCN(CC(C)(C)O)CC4)cc3c2C(C)C)cn(C)c1=O [Example 312, 5-(5-(1-(2-hydroxy-2-methylpropyl)piperidin-4-yl)-3-isopropyl-1H-indol-2-yl)-1,3-dimethylpyrazin-2(1H)-one]
8040 | 4.7 | 3.1 | Cc1cc(-c2[nH]c3ccc(C4CCN([C@H]5CCOC[C@@H]5O)CC4)cc3c2C(C)C)cn(C)c1=O [Example 313, 5-(5-(1-((3R,4S)-3-hydroxytetrahydro-2H-pyran-4-yl)piperidin-4-yl)-3-isopropyl-1H-indol-2-yl)-1,3-dimethylpyridin-2(1H)-one]
10100 | 5.2 | 5.1 | Cc1cc(-c2[nH]c3ccc(C4CCN([C@H]5COCC[C@@H]5O)CC4)cc3c2C(C)C)cn(C)c1=O [Example 314, 5-(5-(1-((3S,4S)-4-hydroxytetrahydro-2H-pyran-3-yl)piperidin-4-yl)-3-isopropyl-1H-indol-2-yl)-1,3-dimethylpyridin-2(1H)-one]
4940 | 6.7 | 1.8 | Cc1c(-c2[nH]c3ccc(C4CCN(CC(C)(C)O)CC4)cc3c2C(C)C)cn(C)c(=O)c1C [Example 315, 5-(5-(1-(2-hydroxy-2-methylpropyl)piperidin-4-yl)-3-isopropyl-1H-indol-2-yl)-1,3,4-trimethylpyridin-2(1H)-one]
3090 | 10.2 | 1.9 | Cc1cc(-c2[nH]c3ccc(C4CCN(CC(C)(C)O)CC4)cc3c2C(C)C)c(C)n(C)c1=O [Example 316, 5-(5-(1-(2-hydroxy-2-methylpropyl)piperidin-4-yl)-3-isopropyl-1H-indol-2-yl)-1,3,6-trimethylpyridin-2(1H)-one]
3580 | 19.3 | 7.2 | COc1c(C)c(-c2[nH]c3ccc(C4CCN(CC(C)(C)O)CC4)cc3c2C(C)C)cn(C)c1=O [Example 317, 5-(5-(1-(2-hydroxy-2-methylpropyl)piperidin-4-yl)-3-isopropyl-1H-indol-2-yl)-3-methoxy-1,4-dimethylpyridin-2(1H)-one]
